In PubChem BioAssay AID1259411 (Chemical Carcinogenesis Research Information System (CCRIS), 2018):
Active and inactive are the calls of the source. The rule behind the calls is not given here.

Tested on: rodent carcinogenicity bioassays, tumor incidence
Assay: CCRIS carcinogenicity studies
Details: Dose: 0, Dose: 0
Method in brief: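 NCI-built, expert-reviewed records of carcinogenicity and related test outcomes (mutagenicity, tumor promotion/inhibition) compiled from published and report sources, historical span 1985-2011, not updated.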

With `O[C@@H]1C=Cc2c(cc3ccc4cccc5ccc2c3c45)[C@H]1O` the carcinogen call (Species: FISH, Strain/Sex: RAINBOW TROUT/MALE,FEMALE, Route: INJECTION, 0.5, 2, 5 UG INJECTED INTO NEWLY HATCHED SAC-FRY (STUDY DURATION: 9 MO), 0.5, 2, 5 UG INJECTED INTO NEWLY HATCHED SAC-FRY (STUDY DURATION: 9 MO), Tumor Site: Type of Lesion: LIVER: TUMOR) was “active; positive”.

With `CCOC(=O)N(CC)N=O` the carcinogen call (Species: HAMSTER, Strain/Sex: SYRIAN/FEMALE, Route: GAVAGE, 14 MG/ML ((0.2 ML OF A SOLUTION IN ETHYL ACETATE/CORN OIL (1:2)) 1/WK FOR 28 WK (STUDY DURATION: LIFE SPAN), Tumor Site: Type of Lesion: PANCREAS: CARCINOMA OR ADENOMA, FORESTOMACH: SQUAMOUS CELL CARCINOMA OR PAPILLOMA) was “active; positive”, the carcinogen call (Species: RAT, Strain/Sex: DONRYU/FEMALE, Route: ORAL, 25, 50, 100 PPM IN DRINKING WATER FOR 60 WK, 25, 50, 100 PPM IN DRINKING WATER FOR 60 WK, Tumor Site: Type of Lesion: ORAL CAVITY: PAPILLOMA, CARCINOMA, ESOPHAGUS: PAPILLOMA, CARCINOMA, FORESTOMACH: PAPILLOMA, CARCINOMA, DUODENUM: ADENOMA, Tumor Site: Type of Lesion: ORAL CAVITY: PAPILLOMA, CARCINOMA, ESOPHAGUS: PAPILLOMA, CARCINOMA, FORESTOMACH: PAPILLOMA, CARCINOMA, DUODENUM: ADENOMA) was “active; positive” and the carcinogen call (Species: RAT, Strain/Sex: F344/FEMALE, Route: GAVAGE, 0.36, 1.6 MG/ANIMAL IN CORN OIL 1/WK FOR 20 WK (STUDY DURATION: 114 WK), 0.36, 1.6 MG/ANIMAL IN CORN OIL 1/WK FOR 20 WK (STUDY DURATION: 114 WK), Tumor Site: Type of Lesion: FORESTOMACH: CARCINOMA, PAPILLOMA OR CARCINOMA) was “active; positive”. The carcinogen call (Species: RAT, Strain/Sex: F344/FEMALE, Route: INTRAVESICULAR, 0.8 MG 2/WK FOR 14 WK (STUDY DURATION: LIFETIME), Tumor Site: Type of Lesion: BLADDER: TUMOR) was “active; positive” and the carcinogen call (Species: RAT, Strain/Sex: F344/FEMALE, Route: ORAL, 0.15, 0.6, 2.5, 10 PPM IN DISTILLED WATER FOR 2 YRS (STUDY DURATION: 112 WK), 0.15, 0.6, 2.5, 10 PPM IN DISTILLED WATER FOR 2 YRS (STUDY DURATION: 112 WK), Tumor Site: Type of Lesion: ORAL CAVITY: PAPILLOMA, CARCINOMA, ESOPHAGUS: PAPILLOMA, CARCINOMA, FORESTOMACH: PAPILLOMA, CARCINOMA, Tumor Site: Type of Lesion: ORAL CAVITY: PAPILLOMA, CARCINOMA, ESOPHAGUS: PAPILLOMA, CARCINOMA, FORESTOMACH: PAPILLOMA, CARCINOMA) was “active; positive”.

For `CCCCCCCN(C)N=O`, the carcinogen call (Species: HAMSTER, Strain/Sex: SYRIAN/FEMALE, Route: GAVAGE, 6.8 MG/KG 1/WK FOR 40 WK (TOTAL DOSE: 0; 2.1 MMOL) (STUDY DURATION: LIFETIME), 6.8 MG/KG 1/WK FOR 40 WK (TOTAL DOSE: 0; 2.1 MMOL) (STUDY DURATION: LIFETIME), Tumor Site: Type of Lesion: LIVER: CHOLANGIOMA, LUNG: ALVEOLAR/BRONCHIAL CARCINOMA, ALVEOLAR/BRONCHIAL ADENOMA, ADENOSQUAMOUS CARCINOMA, NASAL MUCOS, Tumor Site: Type of Lesion: LIVER: CHOLANGIOMA, LUNG: ALVEOLAR/BRONCHIAL CARCINOMA, ALVEOLAR/BRONCHIAL ADENOMA, ADENOSQUAMOUS CARCINOMA, NASAL MUCOS) was “active; positive” and the carcinogen call (Species: HAMSTER, Strain/Sex: SYRIAN/MALE, Route: GAVAGE, 6.8 MG/KG 1/WK FOR 40 WK (TOTAL DOSE: 0; 2.1 MMOL) (STUDY DURATION: LIFETIME), 6.8 MG/KG 1/WK FOR 40 WK (TOTAL DOSE: 0; 2.1 MMOL) (STUDY DURATION: LIFETIME), Tumor Site: Type of Lesion: LIVER: CHOLANGIOMA, HEMANGIOSARCOMA, LUNG: ALVEOLAR/BRONCHIAL CARCINOMA, ALVEOLAR/BRONCHIAL ADENOMA, ADENOSQUAMOUS CARCI) was “active; positive”.

With `CN[C@@H](C)[C@H](O)c1ccccc1` the carcinogen call (Species: MOUSE, Strain/Sex: B6C3F1/FEMALE, Route: ORAL, 125, 250 PPM IN DIET FOR 103 WK, 125, 250 PPM IN DIET FOR 103 WK) was “inactive; negative”, the carcinogen call (Species: MOUSE, Strain/Sex: B6C3F1/MALE, Route: ORAL, 125, 250 PPM IN DIET FOR 103 WK, 125, 250 PPM IN DIET FOR 103 WK) was “inactive; negative” and the carcinogen call (Species: RAT, Strain/Sex: F344/FEMALE, Route: ORAL, 125, 250 PPM IN DIET FOR 103 WK, 125, 250 PPM IN DIET FOR 103 WK) was “inactive; negative”. For the same compound, the carcinogen call (Species: RAT, Strain/Sex: F344/MALE, Route: ORAL, 125, 250 PPM IN DIET FOR 103 WK, 125, 250 PPM IN DIET FOR 103 WK) was “inactive; negative”.

For `C=C(F)F`, the carcinogen call (Species: RAT, Strain/Sex: SPRAGUE-DAWLEY/FEMALE, Route: GAVAGE, 4.12, 8.25 MG/KG BW IN OLIVE OIL 1/D 4-5 D/WK FOR 52 WK (STUDY DURATION: LIFETIME), 4.12, 8.25 MG/KG BW IN OLIVE OIL 1/D 4-5 D/WK FOR 52 WK (STUDY DURATION: LIFETIME), Tumor Site: Type of Lesion: [BRAIN WAS ONLY SITE EVALUATED]) was “inactive; negative” and the carcinogen call (Species: RAT, Strain/Sex: SPRAGUE-DAWLEY/MALE, Route: GAVAGE, 4.12, 8.25 MG/KG BW IN OLIVE OIL 1/D 4-5 D/WK FOR 52 WK (STUDY DURATION: LIFETIME), 4.12, 8.25 MG/KG BW IN OLIVE OIL 1/D 4-5 D/WK FOR 52 WK (STUDY DURATION: LIFETIME), Tumor Site: Type of Lesion: [BRAIN WAS ONLY SITE EVALUATED]) was “inactive; negative”.

`C=C1C[C@@]23CC[C@H]4[C@@](C)(CCC[C@@]4(C)C(=O)O[C@@H]4O[C@H](CO)[C@@H](O)[C@H](O)[C@H]4O)[C@@H]2CC[C@]1(O[C@@H]1O[C@H](CO)[C@@H](O)[C@H](O)[C@H]1O[C@@H]1O[C@H](CO)[C@@H](O)[C@H](O)[C@H]1O)C3` was tested, and the carcinogen call (Species: RAT, Strain/Sex: F344/FEMALE, Route: ORAL, 2.5, 5% IN DIET FOR 104 WK (STUDY DURATION: 108 WK), 2.5, 5% IN DIET FOR 104 WK (STUDY DURATION: 108 WK)) was “inactive; negative”, the carcinogen call (Species: RAT, Strain/Sex: F344/MALE, Route: ORAL, 2.5, 5% IN DIET FOR 104 WK (STUDY DURATION: 108 WK), 2.5, 5% IN DIET FOR 104 WK (STUDY DURATION: 108 WK)) was “inactive; negative” and the carcinogen call (Species: RAT, Strain/Sex: WISTAR/FEMALE, Route: ORAL, 0.2, 0.6%, 1.2% IN DIET FOR 24 MO (STUDY DURATION: 24 MO), 0.2, 0.6%, 1.2% IN DIET FOR 24 MO (STUDY DURATION: 24 MO)) was “inactive; negative”. For the same compound, the carcinogen call (Species: RAT, Strain/Sex: WISTAR/MALE, Route: ORAL, 0.2, 0.6, 1.2% IN DIET FOR 24 MO (STUDY DURATION: 24 MO), 0.2, 0.6, 1.2% IN DIET FOR 24 MO (STUDY DURATION: 24 MO)) was “inactive; negative”.

In the case of `CCn1cc(C(=O)O)c(=O)c2ccc(C)nc21`, the carcinogen call (Species: MOUSE, Strain/Sex: B6C3F1/FEMALE, Route: ORAL, 2000, 4000 PPM IN FEED FOR 103 WK (STUDY DURATION: 104 WK), 2000, 4000 PPM IN FEED FOR 103 WK (STUDY DURATION: 104 WK)) is reported as “inactive; negative”, the carcinogen call (Species: MOUSE, Strain/Sex: B6C3F1/MALE, Route: ORAL, 2000, 4000 PPM IN FEED FOR 103 WK (STUDY DURATION: 104 WK), 2000, 4000 PPM IN FEED FOR 103 WK (STUDY DURATION: 104 WK), Tumor Site: Type of Lesion: INTEGUMENTARY SYSTEM (SUBCUTANEOUS TISSUE): FIBROMA OR FIBROSARCOMA) is reported as “equivocal” and the carcinogen call (Species: RAT, Strain/Sex: F344/FEMALE, Route: ORAL, 2000, 4000 PPM IN FEED FOR 103 WK (STUDY DURATION: 104 WK), 2000, 4000 PPM IN FEED FOR 103 WK (STUDY DURATION: 104 WK), Tumor Site: Type of Lesion: CLITORAL GLAND: ADENOMA, ADENOMA OR PAPILLOMA, ADENOMA OR PAPILLOMA OR CARCINOMA OR PAPILLARY CARCINOMA) is reported as “active; positive”. The carcinogen call (Species: RAT, Strain/Sex: F344/MALE, Route: ORAL, 2000, 4000 PPM IN FEED FOR 103 WK (STUDY DURATION: 104 WK), 2000, 4000 PPM IN FEED FOR 103 WK (STUDY DURATION: 104 WK), Tumor Site: Type of Lesion: PREPUTIAL GLAND: ADENOMA, ADENOMA OR PAPILLOMA, CARCINOMA) was “active; positive”.
